Assay [1] relates to AT719-P cells. Kind of assay: Oxidative stress (ROS by DHE, flow cytometry) in AT719-P cells expressing GSE24.2 or GSE4. As to conditions: three weeks after infection. Type of assay: cell-based, human. Here is the method:
FIG. 11. Determination of oxidative stress levels in ataxia telangiectasia cells after expressing the peptides GSE24.2 and GSE4. AT719-P cells were infected with a lentiviral vector expressing GSE24.2, GSE4 or a GFP empty vector and three weeks later loaded with the DHE reagent that detects levels of reactive oxygen species (ROS). AT736C cells were used as a control. The relative fluorescence of the four cell lines and the proportion of cells with maximum intensity were determined by flow cytometry at wavelengths of 518 nm absorption and 605 nm emission. The data are shown as relative percentage of cells that emit at this wavelength.
(§1) As the peptide denominated GSE4 was smaller than the peptides with ability to repair telomerase activity, we studied if it had the same activity as peptide GSE24.2 for attenuating oxidative stress, expression of proinflammatory cytokines and repairing the senescence in ataxia telangiectasia cells. […] Finally, given that the increase in expression of the interleukins IL6 and IL8 are associated with a secretory phenotype linked to senescence in ataxia telangiectasia, we evaluated the ability of both peptides GSE24.2 and GSE4 to reduce senescence by evaluating senescence-associated β-galactosidase activity (SA-beta-Gal) (FIG. 13).
A general note: A flow cytometer gives signals particle by particle.

For assay [2], the system named is AT2078 AT cells. The assay is described as follows: Senescence-associated β-galactosidase activity in AT cells. Type of assay: cell-based, human. Particulars: 3 days or eight days after infection.
Excerpt: FIG. 13. Determination of senescence of AT cells after expressing peptides GSE24.2 and GSE4: AT2078 AT cells were infected with a lentiviral vector expressing GSE24.2, GSE4 or a GFP empty vector and 3 days or eight days later they were fixed to determine the expression of the enzyme β-galactosidase acid associated with senescence (senescence-associated β-galactosidase). Control C-1787 cells were used as the negative control. The percentage of cells expressing β-galactosidase from the total cells per field was determined. 200 cells per cell type were evaluated and the results grouped into cells showing no activity (βgal-, in division) and senescent cells (β-gal+).
as §1

For assay [3], the system named is HeLa cells. Kind of assay: Internalisation of fluorescein-labelled peptides, confocal fluorescence microscopy. Type of assay: cell-based. Here is the method: FIG. 21. Transfection of peptides GSE4 and GSE4NLS1 in HeLa cells. Peptides GSE4 and GSE4NLS1 (SEQ ID No. 7) labelled with fluorescein and obtained by chemical synthesis were transfected into HeLa cells using the Proteojuice reagent and viewed in a confocal fluorescence microscope at 9, 24 and 48 hours after transfection.
FIG. 22. Internalisation of peptides GSE4 and GSE4NLS1 in HeLa cells. Peptides GSE4 and GSE4NLS1 (SEQ ID No. 7) labelled with fluorescein and obtained by chemical synthesis were added to the culture medium of HeLa cells and viewed in a confocal fluorescence microscope at 9, 24 and 48 hours after transfection.
Given the ability of sequence NLS1 to contribute to the activity of GSE24.2, a synthetic peptide into which this sequence was placed in the 3′ region of peptide GSE4 was constructed as this was the peptide for which the greatest telomerase activation was obtained. The peptides obtained by chemical synthesis were labelled with fluorescein to facilitate their visualisation in a fluorescence microscope. Two experiments were performed in parallel, in one the peptides were transfected using Proteojuice reagent and in the other they were added directly to the culture medium. […] An important difference observed was that when the peptides were added directly to the culture medium, the peptide entered into a higher number of cells than when Proteojuice was used. The reagent provided greater effectiveness for internalisation but into a small number of cells.

The subject of assay [4] is AT2078 cells of patients with ataxia telangiectasia. The assay is described as follows: Damage to DNA in AT2078 cells: histone H2AX Ser139 foci after expression of GSE4 or SGSE4. In kind it is cell-based, human. The method, then:
FIG. 14. Determination of damage to DNA in AT cells after transfecting peptides GSE4 and SGSE4: AT2078 AT cells were infected with a lentiviral vector expressing GSE4, SGSE4 or a GFP empty vector and 24 hours later were fixed for processing and hybridised with an antibody against phosphorylated histone H2AX (Ser139). Control C-1787 cells were used as the negative control. Next they were hybridised with a fluorescein-labelled antibody and were stained with DAPI to locate the nuclei.
As the peptide denominated GSE4 was the smallest sized of the peptides with ability to inhibit damage to DNA, we studied if another peptide with a similar sequence localised in the sequence of peptide GSE24.2 had the same activity or if that activity was specific to GSE4. Peptide SGSE4 (SEQ ID No. 15) is similar to GSE4 in sequence (amino acids LDPK/LDKP that constitute consensus sequences for pseudouridine synthases) and size and is found in the TRUBII domain of dyskerin. Cell lines AT2078 of patients with ataxia telangiectasia were used for this test. Cell line C-1787 was used as the control cell line. The cells were infected with the bicistronic lentiviral vector pCMV-GFP-GSE4, SGSE4 or GFP. After 48 hours of infection the cells were fixed with formaldehyde and then permeabilized by treating them with Triton X-100. The damage to DNA was estimated by studying the signal after hybridisation of the cells with an antibody against histone H2AX Ser139 and subsequent hybridisation with an antibody bound to fluorescein. The number of foci with stain for histone H2AX per nucleus was determined by confocal microscopy in a total of 200 cells and the data represented as a percentage of cells with a specific number of foci.

Assay [5] concerns IL8. Kind of assay: Expression of proinflammatory cytokine IL8 in AT719-P cells. Particulars: relative to β-actin. Type of assay: cell-based, human. The method, then: FIG. 12. Levels of expression of proinflammatory cytokines in ataxia telangiectasia cells after expressing peptides GSE24.2 and GSE4. AT719-P AT cells were infected with a lentiviral vector expressing GSE24.2, GSE4 or a GFP empty vector and three weeks later the RNA was extracted and after obtaining the corresponding cDNA, the levels of expression of the proinflammatory cytokines IL6 and IL8 were determined. AT736C cells were used as a control. The levels of expression of the gene β-actin were measured as control of expression. The results are expressed as the relative increase in the number of times of expression of each of the genes compared to β-actin, considering the levels of expression of AT736C cells as 1.
as §1

The subject of assay [6] is telomerase activity in VA13 cells. The assay is described as follows: Telomerase activity (TRAP assay) in VA13 cells after peptide transfection. In kind it is cell-based. As to conditions: 8 μg peptide. Here is the method:
FIG. 10. Determination of telomerase activity in VA13 cells after transfection of the peptides GSE4 and GSE5. In order to determine the effect of expression of peptides GSE4 and GSE5, VA13 cells were transfected through lipofection and 24 hours later a TRAP assay was performed for telomerase activity.
The other way of quantifying the activity of peptide GSE4 was to evaluate its ability to increase telomerase activity in VA13 cells. To do this, these cells were transfected with 8 μg of the two peptides GSE4 and GSE5. […], the cells were processed to test the telomerase activity by the TRAP method.

Consider two sequences from US20160340656A1, “PEPTIDES DERIVED FROM GSE 24.2 FOR TREATING DISEASES CAUSED BY OXIDATIVE STRESS AND DAMAGE TO DNA” (CONSEJO SUPERIOR DE INVESTIGACIONES CIENTÍFICAS (CSIC), priority 2013, published 2016).

In the case of GFINLDKPSNP [GSE4], the “reduction of levels of free radicals” value in assay [1] turned out to be 50%. The “senescence: percentage of cells positive for beta-galactosidase activity” value in assay [2] is given as “reduced the percentage of positive cells for beta-galactosidase activity progressively over time”. In addition, the entry into cells entry in assay [3] (peptide simply added to the culture medium) and in assay [3] (transfected using Proteojuice reagent) was “entered the cells” each time. Besides, the “overall correction of damage to DNA” value in assay [4] was 60%. Further, the “AT cells in which overall damage to DNA is corrected” value in assay [4] (200 cells) was 38%. The “reduction of levels of expression of IL8” value in assay [5] amounted to 90%. The “reactivation of telomerase activity” value in assay [6] was “much higher activity in reactivating telomerase activity”.
Turning to “GFINLDKPSNPSSHEVVAWIRRILRVEKTGHSGTLDPKVTGCLIVCIERATRLVK (GSE24.2; listed as Homo sapiens) [55-amino-acid peptide corresponding to the protein dyskerin; known from WO2007/090911]”, the “reduction of levels of free radicals” value in assay [1] is roughly 50%. For the same sequence, in assay [2], the “senescence: percentage of cells positive for beta-galactosidase activity” value is “reduced the percentage of positive cells for beta-galactosidase activity progressively over time”. Moreover, in assay [5], the “reduction of levels of expression of IL8” value is “in the same range”.
